From ChEMBL document CHEMBL1201861, “Genomics of Drug Sensitity in Cancer screening data, Wellcome Trust Sanger Institute”
pIC50: −log10 of the molar value.

Experiments:
Caov-4 = test: cells; format: functional, cell-based; conditions: Homo sapiens
Description: SANGER: Inhibition of human Caov-4 cell growth in a cell viability assay.

ECC12 = test: cells; format: functional, cell-based; conditions: Homo sapiens
Description: SANGER: Inhibition of human ECC12 cell growth in a cell viability assay.

EFE-184 = test: cells; format: functional, cell-based, Homo sapiens; conditions: Homo sapiens, EFE-184
Description: SANGER: Inhibition of human EFE-184 cell growth in a cell viability assay.

EW-7 = test: SANGER: Inhibition of human EW-7 cell growth in a cell viability assay.; format: functional, cell-based; conditions: Homo sapiens, EW-7
IPC-298 = test: SANGER: Inhibition of human IPC-298 cell growth in a cell viability assay.; format: functional, cell-based; conditions: Homo sapiens, IPC-298
MDA-MB-468 = test: cells; format: functional, cell-based, Homo sapiens; conditions: Homo sapiens, MDA-MB-468
Description: SANGER: Inhibition of human MDA-MB-468 cell growth in a cell viability assay.

MES-SA = test: cells; format: functional, cell-based, Homo sapiens; conditions: Homo sapiens, MES-SA;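 note: growth inhibition of human MES-SA cells, read out with a cell viability assay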
Description: SANGER: Inhibition of human MES-SA cell growth in a cell viability assay.

MFE-296 = test: SANGER: Inhibition of human MFE-296 cell growth in a cell viability assay.; format: functional, cell-based; conditions: Homo sapiens, MFE-296
NCI-H1618 = test: cells; format: functional, cell-based, Homo sapiens; conditions: Homo sapiens, NCI-H1618;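 note: growth inhibition of human NCI-H1618 cells, measured by a cell viability assay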
Description: SANGER: Inhibition of human NCI-H1618 cell growth in a cell viability assay.

NCI-H1734 = test: cells; format: functional, cell-based, Homo sapiens; conditions: Homo sapiens, NCI-H1734;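 note: growth inhibition of human NCI-H1734 cells, read out with a cell viability assay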
Description: SANGER: Inhibition of human NCI-H1734 cell growth in a cell viability assay.

NCI-H838 = test: cells; format: functional, cell-based, Homo sapiens; conditions: Homo sapiens, NCI-H838;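 note: growth inhibition of human NCI-H838 cells, read out by a cell viability assay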
Description: SANGER: Inhibition of human NCI-H838 cell growth in a cell viability assay.

SNG-M = test: cells; format: functional, cell-based, Homo sapiens; conditions: Homo sapiens, SNG-M
Description: SANGER: Inhibition of human SNG-M cell growth in a cell viability assay.

SNU-475 = test: cells; format: functional, cell-based, Homo sapiens; conditions: Homo sapiens, SNU-475
Description: SANGER: Inhibition of human SNU-475 cell growth in a cell viability assay.

C-4-II = test: SANGER: Inhibition of human C-4-II cell growth in a cell viability assay.; format: functional, cell-based; conditions: Homo sapiens, C-4-II
TT = test: cells; format: functional, cell-based, Homo sapiens; conditions: Homo sapiens, TT
Description: SANGER: Inhibition of human TT cell growth in a cell viability assay.

CCF-STTG1 = test: cells; format: functional, cell-based, Homo sapiens; conditions: Homo sapiens, CCF-STTG1;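 note: growth inhibition of human CCF-STTG1 cells, determined with a cell viability read-out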
Description: SANGER: Inhibition of human CCF-STTG1 cell growth in a cell viability assay.

NCI-H128 = test: SANGER: Inhibition of human NCI-H128 cell growth in a cell viability assay.; format: functional, cell-based
NCI-H378 = test: SANGER: Inhibition of human NCI-H378 cell growth in a cell viability assay.; format: functional, cell-based
TC-YIK = test: SANGER: Inhibition of human TC-YIK cell growth in a cell viability assay.; format: functional, cell-based
ECC10 = test: cells; format: functional, cell-based, Homo sapiens; conditions: Homo sapiens, ECC10;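 note: growth inhibition of ECC10 cells, read out by a cell viability assay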
Description: SANGER: Inhibition of human ECC10 cell growth in a cell viability assay.

NBsusSR = test: cells; format: functional, cell-based, Homo sapiens; conditions: Homo sapiens, NBsusSR;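 note: growth inhibition of the human cell line, read out with a cell viability assay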
Description: SANGER: Inhibition of human NBsusSR cell growth in a cell viability assay.

NCI-H1666 = test: cells; format: functional, cell-based, Homo sapiens; conditions: Homo sapiens, NCI-H1666;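 note: growth inhibition of the cell line, read out with a cell viability assay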
Description: SANGER: Inhibition of human NCI-H1666 cell growth in a cell viability assay.

SW900 = test: cells; format: functional, cell-based, Homo sapiens; conditions: Homo sapiens, SW900;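 note: IC50 is the concentration that inhibits SW900 cell growth, measured by a cell viability assay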
Description: SANGER: Inhibition of human SW900 cell growth in a cell viability assay.

BALL-1 = test: cells; format: functional, cell-based, Homo sapiens; conditions: Homo sapiens, BALL-1;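 note: growth inhibition of BALL-1 cells, read out with a cell viability assay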
Description: SANGER: Inhibition of human BALL-1 cell growth in a cell viability assay.

CHP-134 = test: SANGER: Inhibition of human CHP-134 cell growth in a cell viability assay.; format: functional, cell-based
SK-MEL-5 = test: SANGER: Inhibition of human SK-MEL-5 cell growth in a cell viability assay.; format: functional, cell-based
SK-MG-1 = test: SANGER: Inhibition of human SK-MG-1 cell growth in a cell viability assay.; format: functional, cell-based

N#Cc1c(O)c2c(-c3ccc(-c4ccccc4O)cc3)csc2[nH]c1=O
pIC50 (Caov-4): < 5.99 | pIC50 (ECC12): < 5.99 | pIC50 (EFE-184): < 5.99 | pIC50 (EW-7): < 5.99 | pIC50 (IPC-298): < 5.99 | pIC50 (MDA-MB-468): < 5.99 | pIC50 (MES-SA): < 5.99 | pIC50 (MFE-296): < 5.99 | pIC50 (NCI-H1618): < 5.99 | pIC50 (NCI-H1734): < 5.99 | pIC50 (NCI-H838): < 5.99 | pIC50 (SNG-M): < 5.99 | pIC50 (SNU-475): < 5.99 | pIC50 (C-4-II): < 5.99 | pIC50 (TT): < 5.99 | pIC50 (CCF-STTG1): < 5.99

COc1cc2ncn(-c3cc(OCc4ccccc4S(C)(=O)=O)c(C#N)s3)c2cc1OC [GSK-319347A]
pIC50 (ECC12): < 5.30 | pIC50 (NCI-H128): < 5.30 | pIC50 (NCI-H378): < 5.30 | pIC50 (TC-YIK): < 5.30

CC1(C)CNc2cc(NC(=O)c3cccnc3NCc3ccncc3)ccc21 [MOTESANIB]
pIC50 (ECC10): < 5.70 | pIC50 (NBsusSR): < 5.70 | pIC50 (NCI-H1666): < 5.70 | pIC50 (SW900): < 5.70 | pIC50 (BALL-1): < 5.70 | pIC50 (CHP-134): < 5.70

CC(C)c1ccccc1Cc1cc(C(=O)Nc2ccc(S(=O)(=O)c3ccccc3C(C)(C)C)cc2)c(O)c(O)c1O
pIC50 (EW-7): 6.78 | pIC50 (MES-SA): 5.95 | pIC50 (NCI-H1666): 6.42 | pIC50 (SK-MEL-5): 7.16 | pIC50 (SK-MG-1): 5.59 | pIC50 (SW900): 5.56
